Twelve molecules from article PMC11640419, “New Synthetic Analogs of Natural 5Z,9Z-Dienoic Acids—Hybrid Molecules Based on Oleanolic Acid: Synthesis and Study of Antitumor Activity” (Cancers, 2024) can be followed below.

The nature of data set [1]: Cytotoxicity assay (7-AAD, flow cytometry). It is filed as cell-based, human. The conditions noted are these: human, Jurkat cells; Jurkat, 24 h incubation. As for the experimental part:
The human cell lines Jurkat, K562, U937, and HEK293 were obtained from the European Collection of Authenticated Cell Cultures (ECACC) and subsequently cultured in accordance with established standard protocols and sterile techniques. […] Subsequently, the cells were seeded into 24-well plates at a density of 5 × 10^4 cells per well and incubated for 12 h (Jurkat, K562, U937) and 24 h (HEK293).
The viability of the cells was evaluated through the utilization of the 7-AAD (7-aminoactinomycin D) dye (eBioscience™, San Diego, CA, USA). Following a 24 h incubation period with the test substances, the cells were washed with phosphate-salt buffer (PBS) and centrifuged at 400× g for five minutes. […] Subsequently, all cell samples were subjected to analysis on a NovoCyte Penteon flow cytometer (Agilent, Santa Clara, CA, USA).
On the technique in general: Flow cytometry measures light scatter and fluorescence of single cells or particles in a stream.

Data set [2] is described as follows: Cytotoxicity assay (7-AAD, flow cytometry). The note with it: human. It is filed as cell-based, human. As for the experimental part:
The human cell lines Jurkat, K562, U937, and HEK293 were obtained from the European Collection of Authenticated Cell Cultures (ECACC) and subsequently cultured in accordance with established standard protocols and sterile techniques. The cells were maintained in RPMI 1640 (for Jurkat, K562, and U937) or DMEM (for HEK293) medium, both of which were supplemented with […], 10% FBS (Sigma, Kanagawa, Japan), and 100 units/mL penicillin-streptomycin (Sigma). Subsequently, the cells were seeded into 24-well plates at a density of 5 × 10^4 cells per well and incubated for 12 h (Jurkat, K562, U937) and 24 h (HEK293).
The viability of the cells was evaluated through the utilization of the 7-AAD (7-aminoactinomycin D) dye (eBioscience™, San Diego, CA, USA). Following a 24 h incubation period with the test substances, the cells were washed with phosphate-salt buffer (PBS) and centrifuged at 400× g for five minutes. The precipitate was resuspended in 200 μL of flow cytometry buffer (PBS without calcium and magnesium, 2.5% FBS) and incubated with a 1 mM 7-AAD dye solution for 15 min in the dark at room temperature. Subsequently, all cell samples were subjected to analysis on a NovoCyte Penteon flow cytometer (Agilent, Santa Clara, CA, USA).

[3] abbreviates: HEK293 cells, HEK293, 24 h incubation.
Setting [4] is: K562 cells, K562, 24 h incubation.
Where [5] appears, read: U937 cells, U937, 24 h incubation.

Regarding `CC(=O)O[C@H]1CC[C@@]2(C)C(CC[C@]3(C)C2CC=C2C4CC(C)(C)CC[C@]4(C(=O)Nc4ccncc4)CC[C@]23C)C1(C)C` (stereo partly drawn) [compound 7g], the CC50 at 24 h in data set [1] amounted to 143 ± 14.3 µM; in data set [2] (setting [3]) it was 430 ± 41.9 µM; in data set [2] (setting [4]), 125 ± 11.9 µM; in data set [2] (setting [5]), 112 ± 12.3 µM.

On to `CC1(C)CC[C@]2(C(=O)O)CC[C@]3(C)C(=CC[C@@H]4[C@@]5(C)CC[C@H](O)C(C)(C)[C@@H]5CC[C@]43C)[C@@H]2C1` [Oleanoic acid, Oleanolic acid], for which the CC50 at 24 h was found to be 199 ± 18.4 µM in data set [1], 497 ± 39.8 µM in data set [2] (setting [3]), 171 ± 16.5 µM in data set [2] (setting [4]) and 144 ± 14.3 µM in data set [2] (setting [5]).

In the case of `Cc1c(NC(=O)[C@]23CCC(C)(C)CC2C2=CCC4[C@@]5(C)CC[C@H](O)C(C)(C)C5CC[C@@]4(C)[C@]2(C)CC3)c(=O)n(-c2ccccc2)n1C` (stereo partly drawn) [compound 8b], the CC50 at 24 h is 98.7 ± 9.39 µM in data set [1], 267 ± 22.7 µM in data set [2] (setting [3]), 94.8 ± 9.57 µM in data set [2] (setting [4]) and 85.4 ± 8.64 µM in data set [2] (setting [5]).

Consider `Cc1cc(NC(=O)[C@]23CCC(C)(C)CC2C2=CCC4[C@@]5(C)CC[C@H](OC(=O)CCC/C=C\CC/C=C\CCCC(=O)O)C(C)(C)C5CC[C@@]4(C)[C@]2(C)CC3)no1` (stereo partly drawn) [compound 9h], for which the CC50 at 24 h in data set [1] stood at 91.2 ± 8.34 µM; in data set [2] (setting [3]), 213 ± 18.3 µM; in data set [2] (setting [4]) it was 81.5 ± 7.62 µM; in data set [2] (setting [5]) it was 72.3 ± 6.85 µM.

With `CC(=O)O[C@H]1CC[C@@]2(C)C(CC[C@]3(C)C2CC=C2C4CC(C)(C)CC[C@]4(C(=O)Nc4cc(C)on4)CC[C@]23C)C1(C)C` (stereo partly drawn) [compound 7h], the CC50 at 24 h came to 146 ± 14 µM in data set [1], 489 ± 44.8 µM in data set [2] (setting [3]), 139 ± 12.9 µM in data set [2] (setting [4]) and 129 ± 11.7 µM in data set [2] (setting [5]).

`CC(=O)O[C@H]1CC[C@@]2(C)C(CC[C@]3(C)C2CC=C2C4CC(C)(C)CC[C@]4(C(=O)NC(C)C45CC6CC(CC(C6)C4)C5)CC[C@]23C)C1(C)C` (stereo partly drawn) [compound 7d]: the CC50 at 24 h was 120 ± 11.8 µM in data set [1], 342 ± 33.8 µM in data set [2] (setting [3]), 99.9 ± 9.38 µM in data set [2] (setting [4]) and 97.1 ± 8.96 µM in data set [2] (setting [5]).

`Cn1nccc1NC(=O)[C@]12CCC(C)(C)CC1C1=CCC3[C@@]4(C)CC[C@H](O)C(C)(C)C4CC[C@@]3(C)[C@]1(C)CC2` (stereo partly drawn) [compound 8a]: the CC50 at 24 h in data set [1] was determined as 23.8 ± 2.84 µM; in data set [2] (setting [3]), 110 ± 10.3 µM; in data set [2] (setting [4]), 20.4 ± 2.11 µM; in data set [2] (setting [5]) it was 19.6 ± 1.96 µM.

`CC(=O)O[C@H]1CC[C@@]2(C)C(CC[C@]3(C)C2CC=C2C4CC(C)(C)CC[C@]4(C(=O)Nc4c(C)n(C)n(-c5ccccc5)c4=O)CC[C@]23C)C1(C)C` (stereo partly drawn) [compound 7b]: the CC50 at 24 h in data set [1] is 86.5 ± 8.46 µM; in data set [2] (setting [3]) it was 218 ± 20.7 µM; in data set [2] (setting [4]), 81.3 ± 7.98 µM; in data set [2] (setting [5]) it was 72.2 ± 7.34 µM.

Turning to `CC1(C)CC[C@]2(C(=O)NCc3cccs3)CC[C@]3(C)C(=CCC4[C@@]5(C)CC[C@H](O)C(C)(C)C5CC[C@]43C)C2C1` (stereo partly drawn) [compound 8e], the CC50 at 24 h in data set [1] stood at 165 ± 14.2 µM; in data set [2] (setting [3]), 593 ± 53.9 µM; in data set [2] (setting [4]), 149 ± 12.6 µM; in data set [2] (setting [5]), 122 ± 12 µM.

For `CC1(C)CC[C@]2(C(=O)Nc3cccc4cccnc34)CC[C@]3(C)C(=CCC4[C@@]5(C)CC[C@H](O)C(C)(C)C5CC[C@]43C)C2C1` (stereo partly drawn) [compound 8i], the CC50 at 24 h in data set [1] is 165 ± 14.3 µM; in data set [2] (setting [3]) it was 515 ± 40.3 µM; in data set [2] (setting [4]), 155 ± 12.9 µM; in data set [2] (setting [5]), 142 ± 12.5 µM.

As for `CC1(C)CC[C@]2(C(=O)Nc3nccs3)CC[C@]3(C)C(=CCC4[C@@]5(C)CC[C@H](O)C(C)(C)C5CC[C@]43C)C2C1` (stereo partly drawn) [compound 8f], the CC50 at 24 h in data set [1] amounted to 189 ± 17.4 µM; in data set [2] (setting [3]) it was 611 ± 57.7 µM; in data set [2] (setting [4]) it was 168 ± 17.1 µM; in data set [2] (setting [5]) it was 157 ± 15 µM.

Take `CC(=O)O[C@H]1CC[C@@]2(C)C(CC[C@]3(C)C2CC=C2C4CC(C)(C)CC[C@]4(C(=O)NCc4cccs4)CC[C@]23C)C1(C)C` (stereo partly drawn) [compound 7e]: the CC50 at 24 h was 131 ± 12.5 µM in data set [1], 438 ± 42.6 µM in data set [2] (setting [3]), 125 ± 11.9 µM in data set [2] (setting [4]) and 108 ± 11 µM in data set [2] (setting [5]).

Usually CC50 stands for the concentration giving 50% cytotoxicity. Read a high CC50 as lower toxicity to the cells.
